Experiment [1] has as its target T1, Serine/threonine-protein kinase Nek9 (Homo sapiens) (UniProt Q8TD19).
T1 sequence (whole entry): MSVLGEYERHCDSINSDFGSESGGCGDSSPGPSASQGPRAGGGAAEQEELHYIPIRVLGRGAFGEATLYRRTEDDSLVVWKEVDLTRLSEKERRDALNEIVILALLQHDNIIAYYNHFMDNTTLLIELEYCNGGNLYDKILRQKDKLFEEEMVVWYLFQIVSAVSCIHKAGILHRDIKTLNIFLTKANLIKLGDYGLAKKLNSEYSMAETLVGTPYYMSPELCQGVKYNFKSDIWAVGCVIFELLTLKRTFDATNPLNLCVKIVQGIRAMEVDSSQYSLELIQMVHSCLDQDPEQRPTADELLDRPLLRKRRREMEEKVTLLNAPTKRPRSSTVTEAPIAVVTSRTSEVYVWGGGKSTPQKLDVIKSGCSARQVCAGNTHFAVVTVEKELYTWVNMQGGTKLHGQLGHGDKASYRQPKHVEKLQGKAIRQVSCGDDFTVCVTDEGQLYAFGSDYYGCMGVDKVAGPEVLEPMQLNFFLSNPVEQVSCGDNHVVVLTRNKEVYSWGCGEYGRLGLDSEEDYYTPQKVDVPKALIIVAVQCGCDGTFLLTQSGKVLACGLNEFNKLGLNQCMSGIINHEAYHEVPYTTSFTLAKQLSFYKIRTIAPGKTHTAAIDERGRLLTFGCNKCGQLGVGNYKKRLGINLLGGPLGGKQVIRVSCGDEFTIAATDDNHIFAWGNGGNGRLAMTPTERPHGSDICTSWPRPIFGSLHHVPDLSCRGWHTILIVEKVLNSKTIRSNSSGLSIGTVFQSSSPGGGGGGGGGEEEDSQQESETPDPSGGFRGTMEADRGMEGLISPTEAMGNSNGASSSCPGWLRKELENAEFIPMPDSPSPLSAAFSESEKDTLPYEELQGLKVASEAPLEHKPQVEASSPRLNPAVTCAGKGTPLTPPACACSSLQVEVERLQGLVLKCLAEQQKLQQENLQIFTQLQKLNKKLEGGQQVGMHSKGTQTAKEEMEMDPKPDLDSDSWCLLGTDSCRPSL
In words: Selectivity interaction (ProQinase) EUB0000171b NEK9.

Experiment [2] addresses Serine/threonine-protein kinase mTOR (Homo sapiens, UniProt P42345). In words: Selectivity interaction (KinomeScan (DiscoverX)) EUB0001079a MTOR. The settings on record: at 1 µM.
For experiment [3], the target named is Proto-oncogene tyrosine-protein kinase ROS (Homo sapiens) (UniProt P08922). In words: Selectivity interaction (Millipore kinase profiler) EUB0000124b ROS1. The settings on record: at 10 µM.
For experiment [4], the target named is T2, Phosphatidylinositol 5-phosphate 4-kinase type-2 gamma (Homo sapiens) (UniProt Q8TBX8).
T2 sequence (whole entry): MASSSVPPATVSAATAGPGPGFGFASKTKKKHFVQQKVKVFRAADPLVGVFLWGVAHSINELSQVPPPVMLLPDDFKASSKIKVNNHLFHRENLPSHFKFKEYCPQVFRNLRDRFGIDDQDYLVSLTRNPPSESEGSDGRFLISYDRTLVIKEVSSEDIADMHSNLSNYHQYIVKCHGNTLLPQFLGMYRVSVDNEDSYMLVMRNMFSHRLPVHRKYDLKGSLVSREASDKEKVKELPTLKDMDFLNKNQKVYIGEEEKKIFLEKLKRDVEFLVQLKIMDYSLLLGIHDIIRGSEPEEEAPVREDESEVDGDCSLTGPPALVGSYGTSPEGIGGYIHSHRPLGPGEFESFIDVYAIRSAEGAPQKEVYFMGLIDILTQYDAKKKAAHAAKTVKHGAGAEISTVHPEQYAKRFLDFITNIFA
The experiment is described as follows: Selectivity interaction (KinomeScan (DiscoverX)) EUB0000695a PIP4K2C. The settings on record: at 100 nM.

Experiment [5] addresses T3, Mitogen-activated protein kinase kinase kinase kinase 2 (Homo sapiens) (UniProt Q12851).
T3 sequence (whole entry): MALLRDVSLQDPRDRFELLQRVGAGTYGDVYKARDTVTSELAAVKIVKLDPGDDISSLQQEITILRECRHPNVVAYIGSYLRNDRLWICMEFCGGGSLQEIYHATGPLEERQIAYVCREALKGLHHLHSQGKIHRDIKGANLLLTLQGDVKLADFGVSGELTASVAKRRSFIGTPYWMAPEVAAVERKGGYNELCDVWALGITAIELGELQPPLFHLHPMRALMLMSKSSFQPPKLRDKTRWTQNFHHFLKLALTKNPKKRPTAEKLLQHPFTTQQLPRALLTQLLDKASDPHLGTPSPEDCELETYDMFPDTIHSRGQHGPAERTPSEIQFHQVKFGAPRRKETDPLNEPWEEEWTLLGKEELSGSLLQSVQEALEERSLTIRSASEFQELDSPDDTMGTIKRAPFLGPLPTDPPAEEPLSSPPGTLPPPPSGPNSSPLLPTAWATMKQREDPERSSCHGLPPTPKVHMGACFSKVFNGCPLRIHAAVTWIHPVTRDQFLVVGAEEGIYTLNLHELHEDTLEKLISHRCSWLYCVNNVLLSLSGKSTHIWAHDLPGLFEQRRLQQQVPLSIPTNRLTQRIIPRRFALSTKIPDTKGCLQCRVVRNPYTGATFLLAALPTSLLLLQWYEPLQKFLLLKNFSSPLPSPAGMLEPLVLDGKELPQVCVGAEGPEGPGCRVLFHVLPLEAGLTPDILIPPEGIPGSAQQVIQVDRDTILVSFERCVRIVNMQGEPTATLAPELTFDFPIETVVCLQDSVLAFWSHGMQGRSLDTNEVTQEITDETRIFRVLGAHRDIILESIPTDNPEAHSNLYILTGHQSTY
In words: Selectivity interaction (KinomeScan (DiscoverX)) EUB0000045b MAP4K2.

Experiment [6] addresses Serine/threonine-protein kinase PAK 6 (Homo sapiens) (UniProt Q9NQU5). The experiment is described as follows: Selectivity interaction (Kinase panel (Z-LYTE Assay)) EUB0001632a PAK6. The settings on record: at 10 µM.
Experiment [7] has as its target Serine/threonine-protein kinase pim-2 (Homo sapiens, UniProt Q9P1W9). The experiment is described as follows: Selectivity interaction (SelectScreen profiling (Invitrogen)) EUB0000607a PIM2. The settings on record: at 2 µM.
The target of experiment [8] is Death-associated protein kinase 1 (Homo sapiens, UniProt P53355). In words: Selectivity interaction (Kinase panel (DSF assay)) EUB0001559a DAPK1. On the technique in general: In DSF a fluorescence change marks the thermal transition of the protein.
For experiment [9], the target named is Eukaryotic translation initiation factor 2-alpha kinase 1 (Homo sapiens) (UniProt Q9BQI3). The experiment is described as follows: Selectivity interaction (KinomeScan (DiscoverX)) EUB0000595a EIF2AK1. The settings on record: at 10 µM.
Experiment [10] has as its target Serine/threonine-protein kinase PAK 1 (Homo sapiens) (UniProt Q13153). In words: Selectivity interaction (KinomeScan (DiscoverX)) EUB0000595a PAK1. The settings on record: at 10 µM.
In experiment [11] the target is Ephrin type-A receptor 4 (Homo sapiens, UniProt P54764). The settings on record: at 10 µM.
Experiment [12] addresses Rho-associated protein kinase 1 (Homo sapiens) (UniProt Q13464). The experiment is described as follows: Selectivity interaction (KinomeScan (DiscoverX)) EUB0000618a ROCK1. The settings on record: at 10 µM.

Chain of Eukaryotic translation initiation factor 2-alpha kinase 1 (Homo sapiens) (Q9BQI3 whole entry): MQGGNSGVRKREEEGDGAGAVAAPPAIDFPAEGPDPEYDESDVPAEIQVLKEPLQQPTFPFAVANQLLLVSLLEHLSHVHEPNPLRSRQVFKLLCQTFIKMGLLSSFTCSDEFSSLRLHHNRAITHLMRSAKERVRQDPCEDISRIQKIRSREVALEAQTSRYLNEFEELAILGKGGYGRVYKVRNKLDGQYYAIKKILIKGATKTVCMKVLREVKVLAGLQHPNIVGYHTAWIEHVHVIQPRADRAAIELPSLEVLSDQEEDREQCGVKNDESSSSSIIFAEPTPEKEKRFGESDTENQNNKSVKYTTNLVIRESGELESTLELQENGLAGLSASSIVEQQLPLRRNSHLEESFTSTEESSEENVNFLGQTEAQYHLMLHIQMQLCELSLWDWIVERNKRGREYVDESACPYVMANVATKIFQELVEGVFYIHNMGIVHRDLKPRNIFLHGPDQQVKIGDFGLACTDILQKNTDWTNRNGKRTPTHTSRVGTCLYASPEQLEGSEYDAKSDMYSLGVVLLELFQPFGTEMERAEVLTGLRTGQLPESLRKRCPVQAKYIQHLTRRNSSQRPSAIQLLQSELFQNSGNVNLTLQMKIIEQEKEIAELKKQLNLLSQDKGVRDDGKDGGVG
Chain of Proto-oncogene tyrosine-protein kinase ROS (Homo sapiens) (P08922 whole entry): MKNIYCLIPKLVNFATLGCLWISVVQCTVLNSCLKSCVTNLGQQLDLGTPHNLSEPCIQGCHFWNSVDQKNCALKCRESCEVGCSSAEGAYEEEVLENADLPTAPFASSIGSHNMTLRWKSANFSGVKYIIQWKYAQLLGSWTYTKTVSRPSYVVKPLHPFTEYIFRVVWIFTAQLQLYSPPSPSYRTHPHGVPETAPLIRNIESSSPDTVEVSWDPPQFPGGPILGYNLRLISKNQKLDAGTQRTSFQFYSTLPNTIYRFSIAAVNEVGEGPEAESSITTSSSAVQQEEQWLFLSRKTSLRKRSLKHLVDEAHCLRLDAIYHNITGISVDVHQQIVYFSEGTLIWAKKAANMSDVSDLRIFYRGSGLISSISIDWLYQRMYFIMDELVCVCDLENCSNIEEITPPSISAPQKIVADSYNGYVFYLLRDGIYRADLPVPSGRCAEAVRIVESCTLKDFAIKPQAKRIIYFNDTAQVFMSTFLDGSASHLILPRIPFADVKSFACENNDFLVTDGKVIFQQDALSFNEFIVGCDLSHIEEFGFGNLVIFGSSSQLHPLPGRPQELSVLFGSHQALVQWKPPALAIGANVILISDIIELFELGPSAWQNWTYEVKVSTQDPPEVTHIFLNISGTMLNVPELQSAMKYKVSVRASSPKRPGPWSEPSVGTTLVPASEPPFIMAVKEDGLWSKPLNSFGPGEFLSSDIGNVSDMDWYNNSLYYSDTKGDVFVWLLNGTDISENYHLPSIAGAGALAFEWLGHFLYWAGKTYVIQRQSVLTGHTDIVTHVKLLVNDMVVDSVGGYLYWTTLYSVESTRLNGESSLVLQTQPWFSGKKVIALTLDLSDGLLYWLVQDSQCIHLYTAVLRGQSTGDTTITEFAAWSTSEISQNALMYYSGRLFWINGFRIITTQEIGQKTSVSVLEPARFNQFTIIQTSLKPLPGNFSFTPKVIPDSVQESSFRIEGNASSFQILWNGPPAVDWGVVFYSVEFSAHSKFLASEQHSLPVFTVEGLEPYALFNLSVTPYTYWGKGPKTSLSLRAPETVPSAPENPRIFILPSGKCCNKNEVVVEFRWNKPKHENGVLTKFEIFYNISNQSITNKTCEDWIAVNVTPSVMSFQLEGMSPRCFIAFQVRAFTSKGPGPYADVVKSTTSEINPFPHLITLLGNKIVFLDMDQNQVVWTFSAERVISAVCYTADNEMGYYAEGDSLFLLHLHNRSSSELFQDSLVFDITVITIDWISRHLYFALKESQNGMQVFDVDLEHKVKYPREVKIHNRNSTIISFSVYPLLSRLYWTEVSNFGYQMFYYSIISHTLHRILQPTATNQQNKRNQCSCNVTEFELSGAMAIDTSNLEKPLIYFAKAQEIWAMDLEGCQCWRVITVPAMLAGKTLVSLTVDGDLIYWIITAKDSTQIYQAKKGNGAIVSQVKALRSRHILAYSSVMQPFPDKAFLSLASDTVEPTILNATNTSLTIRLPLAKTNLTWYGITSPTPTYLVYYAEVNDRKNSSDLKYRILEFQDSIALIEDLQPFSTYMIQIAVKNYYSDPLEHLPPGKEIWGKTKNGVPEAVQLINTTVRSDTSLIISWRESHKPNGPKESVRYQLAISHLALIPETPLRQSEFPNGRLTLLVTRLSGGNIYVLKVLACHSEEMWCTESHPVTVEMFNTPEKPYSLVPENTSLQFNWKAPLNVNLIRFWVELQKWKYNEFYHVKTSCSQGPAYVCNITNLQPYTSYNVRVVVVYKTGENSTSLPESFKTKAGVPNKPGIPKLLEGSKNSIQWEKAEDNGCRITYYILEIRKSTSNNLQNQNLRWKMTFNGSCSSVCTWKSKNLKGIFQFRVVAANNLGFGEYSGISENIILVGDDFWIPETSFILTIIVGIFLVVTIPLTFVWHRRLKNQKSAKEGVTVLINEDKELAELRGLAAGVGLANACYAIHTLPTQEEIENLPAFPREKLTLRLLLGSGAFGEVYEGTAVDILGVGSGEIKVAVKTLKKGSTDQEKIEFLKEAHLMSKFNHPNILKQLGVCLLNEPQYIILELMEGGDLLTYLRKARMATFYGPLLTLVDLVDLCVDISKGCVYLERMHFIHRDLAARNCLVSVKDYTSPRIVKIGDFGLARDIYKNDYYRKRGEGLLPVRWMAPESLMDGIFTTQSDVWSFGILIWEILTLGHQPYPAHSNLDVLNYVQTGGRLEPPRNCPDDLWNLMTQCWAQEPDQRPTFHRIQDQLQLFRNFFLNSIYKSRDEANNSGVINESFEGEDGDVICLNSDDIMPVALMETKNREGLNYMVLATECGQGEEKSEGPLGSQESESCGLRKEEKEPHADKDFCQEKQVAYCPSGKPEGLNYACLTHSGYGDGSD
Chain of Rho-associated protein kinase 1 (Homo sapiens) (Q13464 2-1354 limits assumed): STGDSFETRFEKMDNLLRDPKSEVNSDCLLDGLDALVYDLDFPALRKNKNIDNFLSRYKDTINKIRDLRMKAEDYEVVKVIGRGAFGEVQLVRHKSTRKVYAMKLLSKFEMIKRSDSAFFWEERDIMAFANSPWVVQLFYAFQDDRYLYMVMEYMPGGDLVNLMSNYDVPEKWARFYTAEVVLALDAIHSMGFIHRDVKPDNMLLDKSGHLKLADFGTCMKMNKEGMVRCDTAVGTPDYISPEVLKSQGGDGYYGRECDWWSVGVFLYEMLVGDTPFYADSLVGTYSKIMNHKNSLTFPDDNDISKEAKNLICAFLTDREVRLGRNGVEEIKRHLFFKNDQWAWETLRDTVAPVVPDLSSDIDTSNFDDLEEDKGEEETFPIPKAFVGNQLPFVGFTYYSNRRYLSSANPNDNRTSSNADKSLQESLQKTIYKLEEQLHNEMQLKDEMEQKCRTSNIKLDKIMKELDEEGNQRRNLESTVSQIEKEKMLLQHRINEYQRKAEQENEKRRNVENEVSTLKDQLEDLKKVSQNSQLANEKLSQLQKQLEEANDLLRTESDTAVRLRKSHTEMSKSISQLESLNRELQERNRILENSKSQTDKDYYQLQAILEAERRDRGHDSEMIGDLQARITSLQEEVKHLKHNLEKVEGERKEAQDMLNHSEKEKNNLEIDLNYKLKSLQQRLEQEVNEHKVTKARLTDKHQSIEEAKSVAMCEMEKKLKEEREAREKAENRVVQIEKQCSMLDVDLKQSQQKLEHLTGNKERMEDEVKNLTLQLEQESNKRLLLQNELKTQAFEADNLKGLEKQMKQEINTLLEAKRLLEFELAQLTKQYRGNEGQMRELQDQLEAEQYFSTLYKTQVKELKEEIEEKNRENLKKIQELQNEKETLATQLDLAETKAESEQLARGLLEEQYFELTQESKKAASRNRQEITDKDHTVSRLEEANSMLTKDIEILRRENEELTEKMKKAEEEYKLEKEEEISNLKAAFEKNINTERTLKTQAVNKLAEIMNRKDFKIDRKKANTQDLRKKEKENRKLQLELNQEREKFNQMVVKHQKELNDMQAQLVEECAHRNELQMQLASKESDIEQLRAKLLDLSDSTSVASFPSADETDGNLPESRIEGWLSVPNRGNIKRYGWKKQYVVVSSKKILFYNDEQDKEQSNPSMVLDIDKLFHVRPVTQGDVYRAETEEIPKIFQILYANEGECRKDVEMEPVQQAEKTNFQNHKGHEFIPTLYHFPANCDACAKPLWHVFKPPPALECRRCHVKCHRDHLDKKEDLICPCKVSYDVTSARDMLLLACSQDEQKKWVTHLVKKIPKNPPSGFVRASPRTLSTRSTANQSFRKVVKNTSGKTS
Chain of Serine/threonine-protein kinase PAK 6 (Homo sapiens) (Q9NQU5 whole entry, looked up): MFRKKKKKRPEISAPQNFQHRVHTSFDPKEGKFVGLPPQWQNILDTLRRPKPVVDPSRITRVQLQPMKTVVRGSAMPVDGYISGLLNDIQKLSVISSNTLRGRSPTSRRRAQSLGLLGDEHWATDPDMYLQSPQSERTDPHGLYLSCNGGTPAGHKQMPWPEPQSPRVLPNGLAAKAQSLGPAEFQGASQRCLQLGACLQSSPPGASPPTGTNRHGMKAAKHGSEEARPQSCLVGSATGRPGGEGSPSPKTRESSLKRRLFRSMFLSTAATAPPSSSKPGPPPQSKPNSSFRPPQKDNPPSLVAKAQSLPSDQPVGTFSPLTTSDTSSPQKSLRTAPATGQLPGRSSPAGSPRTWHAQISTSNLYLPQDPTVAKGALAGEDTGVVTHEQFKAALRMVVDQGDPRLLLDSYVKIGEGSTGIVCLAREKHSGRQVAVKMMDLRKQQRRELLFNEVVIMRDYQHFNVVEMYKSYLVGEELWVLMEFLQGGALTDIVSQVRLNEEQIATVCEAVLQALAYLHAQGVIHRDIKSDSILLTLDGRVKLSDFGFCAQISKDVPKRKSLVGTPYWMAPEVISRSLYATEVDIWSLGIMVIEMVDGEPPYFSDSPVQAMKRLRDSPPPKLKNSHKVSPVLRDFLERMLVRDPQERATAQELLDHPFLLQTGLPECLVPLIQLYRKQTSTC

In the case of `C=CC(=O)Nc1cccc(C(=O)Nc2ccc(Nc3cc(-c4[nH]c(SC)nc4C)ccn3)cc2)c1`, the % of control in experiment [1] (at 1 µM) stood at 97%; in [1] (at 5 µM), 73%.
Regarding `Nc1cnc(N2CCc3cc(S(=O)(=O)Nc4c(F)cc(Cl)cc4F)cc(N4CCCC4=O)c32)nc1` [TP-020n], the % of control in experiment [2] was 100%.
For the molecule `CC(=O)Nc1cccc(-n2c(=O)n(C3CC3)c(=O)c3c(Nc4ccc(I)cc4F)n(C)c(=O)c(C)c32)c1`, the % of control in experiment [3] was 107%.
Turning to `Cc1cc(F)c(C(=O)Nc2cccc(-c3nncn3C(C)C)n2)cc1-n1cnc(C2CC2)c1`, the % of control in experiment [4] turned out to be 100%.
Regarding `C=CC(=O)Nc1cc(-n2c(=O)ccc3cnc4ccc(-c5ccc(NS(C)(=O)=O)cc5)cc4c32)ccc1C`, the % of control turned out to be 100% in [5] (at 1 µM) and 89% in experiment [5] (at 10 µM).
Regarding `Cn1cc(-n2cnc3c(NCc4nc5cc(Cl)c(Cl)cc5[nH]4)nc(N4CCOCC4)nc32)cn1`, the % of control in experiment [6] was -5.74%.
For the molecule `CNC(=O)Nc1ccc(-c2nc(N3CC4CCC(C3)O4)c3cnn(C4CCC5(CC4)OCCO5)c3n2)cc1`, in experiment [7], the % of inhibition came out at 3%.
In the case of `CN(C(=O)c1cnn2cccnc12)c1cc2c(cc1N1CCOCC1)C(=O)N(C[C@@H](F)C(C)(C)O)C2`, in [8], the dTM is -0.3 K.
As for `COCC(=O)NC/C=C/c1ccc2ncnc(Nc3ccc(Oc4ccc(C)nc4)c(C)c3)c2c1` [CP-724714], the % of control in experiment [9] is 100%; in experiment [10], 81%; in experiment [11] it was 98%.
Consider `O[C@H]1CC[C@H](Nc2ncc3nc(Nc4c(F)cc(F)cc4F)n([C@H]4CCOC4)c3n2)CC1`, for which the % of control in experiment [12] was found to be 91%.

The values above are taken from ChEMBL document CHEMBL5465560, “Selectivity Literature for EUbOPEN Chemogenomic Library” (2024).
